Experimental data taken from patent US20230050846A1, “TREATMENT OF HEPATIC AND CARDIOVASCULAR DISORDERS” (LIFESEARCH, priority 2019, published 2023).
Where two headings read alike, the source gives them in different places. Peptide text beside a SMILES is read from it. * marks the point of attachment. Palmitoyl = CCCCCCCCCCCCCCCC(=O)*

How the values were obtained:
[1] = Stability in plasma and serum (LC-HRMS); format: in vitro ADME, human and mouse; settings: 37° C.
Procedure: Peptide of Formula (I) or peptide of Formula (II) were prepared at a concentration of 200 μg/mL in PBS or mixed with EDTA plasma or serum from human (Etablissement Frangais du Sang, EFS) or mouse (C57BL/6J, cardiac puncture). Aliquots from PBS samples (40 μL) were incubated at 4° C. or 37° C. for 0, 1, 2 and 4 weeks. Aliquots from plasma and serum samples (50 μL) were incubated at 4° C. or 37° C. for 0, 1, 2, 4, 6, 12, 24 h.
A mixed solution of peptides of formula (I) and (II) was constituted and serially diluted in PBS to obtain seven standard solutions, ranging from 200 μg/mL to 0.2 μg/mL. In parallel, a mixed solution of labelled peptides of Formula (I) and (II) (Thermo Scientific, Biopolymers Darmstadt, Germany) was prepared in PBS at 100 μg/mL. The mixed solution of labelled peptides (25 μL) was added to 25 μL of standard solutions as well as to PBS, plasma and serum samples. Acetonitrile (150 μL) was added to each sample to precipitate plasma/serum proteins. After centrifugation (10,000×g, 4° C., 10 min), the clear supernatants (150 μL) were dried under a gentle stream of nitrogen (45° C.), reconstituted with 10% acetonitrile containing 0.1% formic acid (100 μL), and injected into the liquid chromatography-high-resolution mass spectrometry (LC-HRMS) system. LC-HRMS analyses were performed on an H-Class UPLC system (Waters Corporation, Milford, Mass., USA) by injection of 10 μL of samples onto an Acquity® Peptide CSH C18 column (2.1 mm×150 mm, 1.7 μm; Waters Corporation) held at 60° C. The mobile phase was composed of 5% acetonitrile as solvent A and 100% acetonitrile as solvent B, each containing 0.1% formic acid. The elution was carried out using a gradient of solvent B in solvent A over 20 min at a constant flow rate of 250 μL/min. […] HRMS detection was performed by a Synapt G2 HRMS Q-TOF mass spectrometer equipped with a Z-Spray interface for electrospray ionization (Waters Corporation). The resolution mode was applied in a mass-to-charge (m/z) ratio ranging from 200 to 4,000 at a mass resolution of 25,000 Full Width Half Maximum in the positive ionization mode. Ionization parameters were as follow: capillary voltage of 3 kV, cone voltage of 30 V, desolvatation gas flow of 900 L/hr, source temperature of 120° C., desolvatation temperature of 450° C., Nitrogen as desolvatation gas. Data were collected in the continuum mode at a rate of four spectra per second. […] Peptides were analyzed according to their major exact m/z (i 5 ppm, Table 1) and each peptide signal was normalized with that of its labelled internal standard. Peptide concentrations were calculated using calibration curves plotted from standard solutions (linear regression, 1/x weighted, origin excluded).

wild-type C57B/L6J mice = assay: Biliary lipid secretions, gallbladder cannulation, wild-type mice; format: in vivo, mouse; settings: for bile flux / biliary secretion of bile acids / biliary secretion of cholesterol: C57BL/6 mice, vs PBS or SCR
Procedure: Wild-type C57B/L6J male mice were purchased from Janvier Labs (Le Genest Saint Isle, France). LDLR knock-out mice (males, C57B/L6J background) were obtained from The Jackson Laboratory (Bar Harbor, Me., USA). Mice were caged in animal rooms under specific pathogen free conditions at the animal facility of Rangueil (Anexplo platform, US006, Toulouse, France) with a light/dark schedule of 12 h/12 h and were fed ad libitum with a normal chow diet (#V1535 R/M-H, Ssniff, Germany). All animal experimental procedures were conducted in accordance with institutional guidelines on animal experimentation approved by the local ethical committee of animal care and are conformed to the guidelines from Directive 2010/63/EU of the European Parliament on the protection of animals used for scientific purposes or the NIH guideline.
Depending of experiments, 8 weeks old mice were intraperitoneally injected with PBS, the peptide of formula (I), the peptide of formula (II) and SCR. Details of peptide use, dose and mode of administration and time course are specified in the description of FIG. 11. Given the short elimination half-life of the peptide of formula (I), osmotic pumps were also used to insure a continuous delivery for 14 days. Briefly, 200 μL osmotic pump were filled with 10 mg/mL of the peptide of formula (I) in PBS and were implanted subcutaneously into the mice according to the manufacturer's instructions (Alzet®, model pump #2002), to insure the peptide of formula (I) release at an estimated rate of 0.5 μL/h, which corresponds to an estimated amount of delivery of 5 mg of the peptide of formula (I) per kilogram of body weight per day (5 mg/kg BW/day). Following treatments, mice were fasted for 2 h and were then anesthetized by intra-peritoneal injection of ketamine and xylazine hydrochloride. The common bile duct was ligated close to the duodenum and the gallbladder was punctured and cannulated with a polyethylene-10 catheter. After 30 min of stabilization, newly secreted bile was collected for 30 min. During bile collection, body temperature was stabilized using a temperature mattress. Bile flow (expressed in μL/min/100 g of body weight) was determined gravimetrically assuming a density of 1 g/mL for bile. At the end of experiment, blood was collected and mice were sacrificed by cervical dislocation.
For bile acid analysis, 1 μL of bile samples was diluted with 99 μL of milliQ water then incubated with the work reagent (6 mg NAD, 0.5 M hydrazine hydrate buffer, 0.05 M Na-pyrophosphate) for 4 min. The mix was then incubated with a start reagent (0.03 M Tris-EDTA; 0.3 U/mL 3-alpha-OH steroid dehydrogenase) and measured for 30 min, under excitation of 340/330 nm and emission of 440/420 nm. For phospholipid analysis, 1 μL of bile samples was diluted with 49 μL of milliQ water then incubated with the work reagent (100 mM MOPS, pH 8; 0.55 mM HVA; 20 mM CaCl; 11 U/mL Phospholipase-D; 1.66 U/mL Peroxidase; 0.1% Triton X-100) for 4 min. The mix was then incubated with a start reagent (1 M MOPS, pH 8, 50 U/mL Choline oxidase) and measured for 67.5 min, under excitation of 340/330 and emission of 440/40. For cholesterol analysis, 1 μL of bile samples was diluted with 29 μL of milliQ water then was incubated with the work reagent (100 mM MOPS, pH 8, 0.25 mM HVA; 0.1% Triton X-100) for 4 min. The mix was then incubated with a start reagent (0.1 M MOPS, pH 8, 0.06 U/mL cholesterol oxidase, 0.15 U/mL cholesterol esterase, 0.45 U/mL Peroxidase, 0.06 mM Taurocholate) and measured for 45 min, under excitation of 340/330 nm and emission of 440/420 nm. Secretion values of bile acids, phospholipids and cholesterol were calculated by multiplying concentration and bile flow values, and expressed as nmol/min/100 g body weight (BW).

[2] = EDTA plasma, read-out: recovery of the peptide in plasma
[3] = serum, read-out: recovery of the peptide in serum
[4] = continuous delivery (osmotic pump, sc) 14 days, 5 mg/kg BW/day

Row | Compound | recovery at 24 h, 200 μg/mL [1, 2] [%] | recovery at 24 h, 200 μg/mL [1, 3] [%] | bile flux (wild-type C57B/L6J mice; intraperitoneal bolus 25 mg/kg) | biliary secretion of bile acids (wild-type C57B/L6J mice; intraperitoneal bolus 25 mg/kg) | biliary secretion of cholesterol (wild-type C57B/L6J mice; intraperitoneal bolus 25 mg/kg) | biliary flux and biliary lipid secretion, compared with the 25 mg/kg dose (wild-type C57B/L6J mice; bolus injection 12 mg/kg) | biliary cholesterol secretion (wild-type C57B/L6J mice; [4]) | biliary flux (wild-type C57B/L6J mice; [4]) | time following injection up to which the effect on bile flux and biliary secretion is maintained (wild-type C57B/L6J mice; intraperitoneal bolus 25 mg/kg)
1 | CCCCCCCCCCCCCCCC(=O)NCCCC[C@H](NC(=O)[C@H](CCC(=O)O)NC(=O)[C@H](CCCNC(=N)N)NC(=O)[C@H](CO)NC(=O)[C@H](CCC(N)=O)NC(=O)[C@H](C)NC(=O)[C@H](CCCNC(=N)N)NC(=O)[C@H](Cc1ccccc1)NC(=O)[C@H](Cc1ccc(O)cc1)NC(=O)[C@H](CCCNC(=N)N)NC(=O)[C@H](CCC(=O)O)NC(=O)[C@H](CCC(=O)O)NC(=O)[C@H](CCC(=O)O)NC(=O)[C@H](C)NC(=O)[C@H](CCC(N)=O)NC(=O)[C@H](CCC(=O)O)NC(=O)[C@H](CCCNC(=N)N)NC(=O)[C@H](CCCCN)NC(=O)CNC(=O)[C@H](Cc1ccccc1)NC(=O)[C@H](C)NC(=O)CNC(=O)CNC(=O)[C@H](C)NC(=O)[C@H](CCC(=O)O)NC(=O)[C@H](CCCNC(=N)N)NC(=O)[C@@H](NC(=O)[C@H](CO)NC(=O)CNC(=O)[C@H](C)NC(=O)CNC(=O)[C@H](CCCNC(=N)N)NC(C)=O)[C@@H](C)CC)C(N)=O [peptide of formula (II), CH3CO-[SEQ ID NO: 1]-K-[palmitoyl]-NH2] (Ac-RGAGSIREAGGAFGKREQAEEERYFRAQSREK(Palmitoyl)-NH2) | 50 | 100 | stimulated | stimulated | stimulated | – | – | – | –
2 | Ac-RGAGSIREAGGAFGKREQAEEERYFRAQSRE-NH2 [peptide of formula (I), CH3CO-[SEQ ID NO: 1]-NH2] | 10 | 30 | significant increase | significant increase | significant increase | less efficient | stimulated | stimulated | up to 4 h
